According to ChEMBL document CHEMBL3758137 (Eur J Med Chem, 2016):

Tests used:
[1] = Antiproliferative activity against human EBC1 cells after 72 hrs by SRB assay; details: EBC-1, 72 h
[2] = Solubility of compound in HBSS/HEPES buffer at pH 7.4 by nephelometric analysis in presence of 0.1% BSA; type: physicochemical; details: HBSS/HEPES buffer with 0.1% BSA
[3] = Apparent permeability from basolateral to apical side in human Caco2 cells after 35 to 95 mins by LC-MS/MS analysis; type: ADME, cell-based; details: Caco-2
[4] = Apparent permeability from apical to basolateral side in human Caco2 cells after 35 to 95 mins by LC-MS/MS analysis; type: ADME, cell-based; details: Caco-2
[5] = biological target: Fibroblast growth factor receptor 1 (Homo sapiens, UniProt P11362); assay: Inhibition of recombinant human FGFR1 using poly (Glu,Tyr)4:1 as substrate after 60 mins by ELISA
[6] = system: Liver microsome; assay: Intrinsic clearance in rat liver microsomes at 0.1 uM after 7 to 60 mins by LC-MS/MS analysis; type: ADME
[7] = Efflux ratio of apparent permeability from basolateral to apical side over apical to basolateral side in human Caco2 cells after 35 to 95 mins by LC-MS/MS analysis; type: ADME, cell-based; details: Caco-2
[8] = biological target: Platelet-derived growth factor receptor beta (Homo sapiens, UniProt P09619); assay: Inhibition of recombinant human PDGFR-beta using poly (Glu,Tyr)4:1 as substrate after 60 mins by ELISA
[9] = biological target: Hepatocyte growth factor receptor (Homo sapiens, UniProt P08581); assay: Inhibition of recombinant c-Met (unknown origin) using poly (Glu,Tyr)4:1 as substrate after 60 mins by ELISA
[10] = biological target: T1, Tyrosine-protein kinase receptor TYRO3 (Homo sapiens, UniProt Q06418); assay: Inhibition of recombinant human TyrO3 using poly (Glu,Tyr)4:1 as substrate after 60 mins by ELISA
T1 sequence (Q06418 whole entry): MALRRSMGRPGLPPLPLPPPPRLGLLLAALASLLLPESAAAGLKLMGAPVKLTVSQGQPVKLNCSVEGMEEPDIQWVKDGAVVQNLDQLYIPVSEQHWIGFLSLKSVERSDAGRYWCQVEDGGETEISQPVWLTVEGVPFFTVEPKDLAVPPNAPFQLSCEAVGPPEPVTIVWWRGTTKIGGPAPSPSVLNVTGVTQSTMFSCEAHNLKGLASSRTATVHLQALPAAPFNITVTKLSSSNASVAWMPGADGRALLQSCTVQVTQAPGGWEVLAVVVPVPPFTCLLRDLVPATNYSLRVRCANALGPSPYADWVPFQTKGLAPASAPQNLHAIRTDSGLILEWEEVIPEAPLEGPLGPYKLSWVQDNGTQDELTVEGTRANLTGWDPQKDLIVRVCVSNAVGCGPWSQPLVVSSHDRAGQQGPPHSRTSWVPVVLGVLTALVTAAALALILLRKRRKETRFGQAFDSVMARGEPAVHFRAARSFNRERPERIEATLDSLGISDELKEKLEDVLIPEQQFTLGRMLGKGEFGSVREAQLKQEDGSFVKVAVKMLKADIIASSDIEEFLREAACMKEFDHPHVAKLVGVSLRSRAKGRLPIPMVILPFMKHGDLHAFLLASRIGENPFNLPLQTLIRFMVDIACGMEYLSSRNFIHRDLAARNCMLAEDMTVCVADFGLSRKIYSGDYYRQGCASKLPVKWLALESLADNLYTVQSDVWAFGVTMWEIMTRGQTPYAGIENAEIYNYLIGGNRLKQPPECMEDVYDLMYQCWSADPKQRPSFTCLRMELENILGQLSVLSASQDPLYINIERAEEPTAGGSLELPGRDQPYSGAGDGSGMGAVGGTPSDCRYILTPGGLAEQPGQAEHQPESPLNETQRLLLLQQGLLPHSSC

[11] = Antitumor activity against human EBC1 cells xenografted in nude mouse assessed as tumor growth inhibition at 5 mg/kg, po qd administered for 21 days relative to control; type: functional; details: EBC-1, po, 504 h, read-out: TGI
[12] = AUC (0 to 8 hrs) in mouse plasma at 10 mg/kg, po; type: ADME, organism-based; set-up: dose 10 mg/kg, time < 8 hr, route oral
[13] = Solubility of compound in HBSS/HEPES buffer at pH 6.8 by nephelometric analysis in presence of 0.1% BSA; type: physicochemical; details: HBSS/HEPES buffer with 0.1% BSA
[14] = biological target: Vascular endothelial growth factor receptor 1 (Homo sapiens, UniProt P17948); assay: Inhibition of recombinant human Flt-1 using poly (Glu,Tyr)4:1 as substrate after 60 mins by ELISA
[15] = Solubility of compound in TRIS buffer by nephelometric analysis in presence of 0.1% BSA; type: physicochemical; details: TRIS buffer with 0.1% BSA
[16] = biological target: T2, Tyrosine-protein kinase Mer (Homo sapiens, UniProt Q12866); assay: Inhibition of recombinant human Mer using poly (Glu,Tyr)4:1 as substrate after 60 mins by ELISA
T2 sequence (Q12866 whole entry): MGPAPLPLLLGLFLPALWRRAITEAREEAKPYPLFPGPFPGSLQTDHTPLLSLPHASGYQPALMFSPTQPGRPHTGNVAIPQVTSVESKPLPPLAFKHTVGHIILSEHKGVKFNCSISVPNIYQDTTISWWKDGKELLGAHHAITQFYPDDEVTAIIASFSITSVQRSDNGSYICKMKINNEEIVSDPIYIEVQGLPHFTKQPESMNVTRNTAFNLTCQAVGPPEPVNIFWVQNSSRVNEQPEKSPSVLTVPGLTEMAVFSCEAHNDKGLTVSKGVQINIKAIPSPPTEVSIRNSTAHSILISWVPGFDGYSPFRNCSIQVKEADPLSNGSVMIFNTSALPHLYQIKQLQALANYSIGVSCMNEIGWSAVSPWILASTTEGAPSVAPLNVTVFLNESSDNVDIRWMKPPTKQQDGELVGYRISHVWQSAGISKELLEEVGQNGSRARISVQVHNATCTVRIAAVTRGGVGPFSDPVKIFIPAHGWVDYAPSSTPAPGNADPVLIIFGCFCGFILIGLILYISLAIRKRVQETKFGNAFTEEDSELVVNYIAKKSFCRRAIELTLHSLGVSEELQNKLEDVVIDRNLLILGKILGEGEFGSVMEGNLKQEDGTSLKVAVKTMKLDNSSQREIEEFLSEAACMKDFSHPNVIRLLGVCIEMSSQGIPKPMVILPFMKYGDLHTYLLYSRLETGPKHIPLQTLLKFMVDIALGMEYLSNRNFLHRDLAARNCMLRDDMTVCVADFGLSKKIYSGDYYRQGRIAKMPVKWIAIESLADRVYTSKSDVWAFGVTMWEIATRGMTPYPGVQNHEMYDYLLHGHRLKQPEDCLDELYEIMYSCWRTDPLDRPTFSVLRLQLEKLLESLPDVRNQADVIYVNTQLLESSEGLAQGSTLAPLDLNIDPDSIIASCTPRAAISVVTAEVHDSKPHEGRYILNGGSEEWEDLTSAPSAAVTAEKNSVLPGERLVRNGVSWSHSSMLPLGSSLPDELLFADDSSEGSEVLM

[17] = Intrinsic clearance in mouse liver microsomes at 0.1 uM after 7 to 60 mins by LC-MS/MS analysis; type: ADME

Chain of Vascular endothelial growth factor receptor 1 (P17948 whole entry): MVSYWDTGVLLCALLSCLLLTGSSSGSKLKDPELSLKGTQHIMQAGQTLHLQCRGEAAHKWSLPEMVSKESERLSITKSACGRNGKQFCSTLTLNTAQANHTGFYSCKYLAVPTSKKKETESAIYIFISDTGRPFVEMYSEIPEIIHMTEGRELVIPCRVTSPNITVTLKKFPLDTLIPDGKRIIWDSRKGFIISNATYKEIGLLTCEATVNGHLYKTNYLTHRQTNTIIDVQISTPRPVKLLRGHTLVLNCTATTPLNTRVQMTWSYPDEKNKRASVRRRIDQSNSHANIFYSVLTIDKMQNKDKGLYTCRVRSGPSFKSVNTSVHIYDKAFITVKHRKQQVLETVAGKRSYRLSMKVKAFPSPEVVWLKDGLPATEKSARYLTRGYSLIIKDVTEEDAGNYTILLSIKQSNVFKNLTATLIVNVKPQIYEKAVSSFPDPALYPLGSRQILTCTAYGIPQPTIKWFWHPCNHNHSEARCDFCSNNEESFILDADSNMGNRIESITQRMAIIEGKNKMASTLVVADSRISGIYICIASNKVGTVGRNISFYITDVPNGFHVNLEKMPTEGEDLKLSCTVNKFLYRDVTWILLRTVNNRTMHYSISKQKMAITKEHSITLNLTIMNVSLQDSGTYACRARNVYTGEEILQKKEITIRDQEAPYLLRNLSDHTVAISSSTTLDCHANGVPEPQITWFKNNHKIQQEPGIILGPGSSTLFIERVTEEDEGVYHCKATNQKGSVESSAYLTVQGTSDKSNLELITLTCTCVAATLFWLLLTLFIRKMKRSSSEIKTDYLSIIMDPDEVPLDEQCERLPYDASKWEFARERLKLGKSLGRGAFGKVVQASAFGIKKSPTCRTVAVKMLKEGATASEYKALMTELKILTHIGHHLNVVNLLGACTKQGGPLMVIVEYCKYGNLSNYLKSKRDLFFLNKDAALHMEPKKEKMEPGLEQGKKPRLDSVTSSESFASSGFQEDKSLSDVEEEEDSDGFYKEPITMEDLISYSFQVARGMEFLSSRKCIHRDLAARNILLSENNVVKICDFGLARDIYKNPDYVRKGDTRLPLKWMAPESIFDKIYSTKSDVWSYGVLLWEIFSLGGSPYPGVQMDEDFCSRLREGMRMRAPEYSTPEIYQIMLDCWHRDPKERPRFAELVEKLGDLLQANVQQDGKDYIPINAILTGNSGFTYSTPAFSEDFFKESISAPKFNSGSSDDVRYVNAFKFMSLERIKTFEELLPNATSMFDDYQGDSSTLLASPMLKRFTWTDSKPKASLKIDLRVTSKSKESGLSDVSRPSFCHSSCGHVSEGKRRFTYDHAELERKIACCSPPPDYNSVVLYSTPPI
Chain of Platelet-derived growth factor receptor beta (P09619 whole entry): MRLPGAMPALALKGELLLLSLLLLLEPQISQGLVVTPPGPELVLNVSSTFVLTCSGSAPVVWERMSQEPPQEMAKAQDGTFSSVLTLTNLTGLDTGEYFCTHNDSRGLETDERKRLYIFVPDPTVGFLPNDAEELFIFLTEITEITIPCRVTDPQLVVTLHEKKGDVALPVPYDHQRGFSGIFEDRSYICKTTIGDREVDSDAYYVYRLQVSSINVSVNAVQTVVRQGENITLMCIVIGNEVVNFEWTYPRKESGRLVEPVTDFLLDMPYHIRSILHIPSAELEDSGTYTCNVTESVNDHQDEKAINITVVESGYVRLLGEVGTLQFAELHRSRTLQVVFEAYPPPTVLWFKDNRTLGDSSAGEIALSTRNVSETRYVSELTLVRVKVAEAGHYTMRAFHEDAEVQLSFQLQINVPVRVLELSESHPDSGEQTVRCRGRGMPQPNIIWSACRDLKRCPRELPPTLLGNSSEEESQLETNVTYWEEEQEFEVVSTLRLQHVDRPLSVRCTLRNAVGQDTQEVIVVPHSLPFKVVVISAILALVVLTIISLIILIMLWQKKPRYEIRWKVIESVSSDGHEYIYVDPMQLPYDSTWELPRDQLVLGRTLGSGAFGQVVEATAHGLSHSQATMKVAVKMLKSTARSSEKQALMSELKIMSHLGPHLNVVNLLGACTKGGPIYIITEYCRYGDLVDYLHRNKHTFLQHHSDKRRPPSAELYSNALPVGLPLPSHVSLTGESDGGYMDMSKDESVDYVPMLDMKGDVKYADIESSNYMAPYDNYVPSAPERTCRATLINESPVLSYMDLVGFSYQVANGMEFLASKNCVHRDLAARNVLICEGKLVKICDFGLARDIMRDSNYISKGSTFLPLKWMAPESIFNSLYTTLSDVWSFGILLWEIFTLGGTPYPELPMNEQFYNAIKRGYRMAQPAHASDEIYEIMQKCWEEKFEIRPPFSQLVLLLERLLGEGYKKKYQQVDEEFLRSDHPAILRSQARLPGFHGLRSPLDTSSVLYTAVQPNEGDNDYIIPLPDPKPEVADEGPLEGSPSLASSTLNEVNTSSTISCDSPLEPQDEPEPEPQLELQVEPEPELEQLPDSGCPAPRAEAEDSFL
Chain of Hepatocyte growth factor receptor (P08581 whole entry): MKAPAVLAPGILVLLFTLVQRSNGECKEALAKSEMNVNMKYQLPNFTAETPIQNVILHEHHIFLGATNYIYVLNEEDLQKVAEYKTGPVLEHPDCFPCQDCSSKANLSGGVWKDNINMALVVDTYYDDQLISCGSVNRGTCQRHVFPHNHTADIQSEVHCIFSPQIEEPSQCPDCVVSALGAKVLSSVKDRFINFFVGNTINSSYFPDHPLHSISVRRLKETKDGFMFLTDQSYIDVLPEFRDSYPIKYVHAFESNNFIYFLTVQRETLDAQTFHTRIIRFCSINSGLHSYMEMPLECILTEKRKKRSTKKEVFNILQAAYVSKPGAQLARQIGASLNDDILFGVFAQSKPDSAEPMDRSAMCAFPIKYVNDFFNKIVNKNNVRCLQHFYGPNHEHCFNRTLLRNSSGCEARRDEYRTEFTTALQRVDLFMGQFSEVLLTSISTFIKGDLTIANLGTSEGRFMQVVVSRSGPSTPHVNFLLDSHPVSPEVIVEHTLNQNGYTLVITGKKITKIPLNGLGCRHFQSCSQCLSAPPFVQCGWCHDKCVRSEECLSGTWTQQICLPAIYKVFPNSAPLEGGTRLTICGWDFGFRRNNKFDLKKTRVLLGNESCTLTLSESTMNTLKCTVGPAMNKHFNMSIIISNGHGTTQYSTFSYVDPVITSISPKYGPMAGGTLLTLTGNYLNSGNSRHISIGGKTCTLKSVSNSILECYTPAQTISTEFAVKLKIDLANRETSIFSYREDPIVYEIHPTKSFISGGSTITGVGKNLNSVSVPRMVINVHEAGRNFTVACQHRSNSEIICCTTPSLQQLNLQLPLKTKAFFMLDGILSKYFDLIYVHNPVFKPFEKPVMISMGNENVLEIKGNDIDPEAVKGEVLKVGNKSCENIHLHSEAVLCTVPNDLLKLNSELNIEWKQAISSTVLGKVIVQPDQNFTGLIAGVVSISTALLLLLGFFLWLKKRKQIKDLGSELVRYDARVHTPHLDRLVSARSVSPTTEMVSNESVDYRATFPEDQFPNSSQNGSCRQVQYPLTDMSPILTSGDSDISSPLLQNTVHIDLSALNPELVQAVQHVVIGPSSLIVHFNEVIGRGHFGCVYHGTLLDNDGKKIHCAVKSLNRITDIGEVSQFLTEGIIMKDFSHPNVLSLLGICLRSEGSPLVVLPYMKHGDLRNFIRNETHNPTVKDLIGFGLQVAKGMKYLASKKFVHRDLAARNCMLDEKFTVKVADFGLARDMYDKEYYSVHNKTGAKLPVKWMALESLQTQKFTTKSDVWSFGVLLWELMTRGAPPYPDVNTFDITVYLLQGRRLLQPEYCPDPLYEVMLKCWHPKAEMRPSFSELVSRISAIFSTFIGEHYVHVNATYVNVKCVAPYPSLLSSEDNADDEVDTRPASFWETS
Chain of Fibroblast growth factor receptor 1 (P11362 whole entry): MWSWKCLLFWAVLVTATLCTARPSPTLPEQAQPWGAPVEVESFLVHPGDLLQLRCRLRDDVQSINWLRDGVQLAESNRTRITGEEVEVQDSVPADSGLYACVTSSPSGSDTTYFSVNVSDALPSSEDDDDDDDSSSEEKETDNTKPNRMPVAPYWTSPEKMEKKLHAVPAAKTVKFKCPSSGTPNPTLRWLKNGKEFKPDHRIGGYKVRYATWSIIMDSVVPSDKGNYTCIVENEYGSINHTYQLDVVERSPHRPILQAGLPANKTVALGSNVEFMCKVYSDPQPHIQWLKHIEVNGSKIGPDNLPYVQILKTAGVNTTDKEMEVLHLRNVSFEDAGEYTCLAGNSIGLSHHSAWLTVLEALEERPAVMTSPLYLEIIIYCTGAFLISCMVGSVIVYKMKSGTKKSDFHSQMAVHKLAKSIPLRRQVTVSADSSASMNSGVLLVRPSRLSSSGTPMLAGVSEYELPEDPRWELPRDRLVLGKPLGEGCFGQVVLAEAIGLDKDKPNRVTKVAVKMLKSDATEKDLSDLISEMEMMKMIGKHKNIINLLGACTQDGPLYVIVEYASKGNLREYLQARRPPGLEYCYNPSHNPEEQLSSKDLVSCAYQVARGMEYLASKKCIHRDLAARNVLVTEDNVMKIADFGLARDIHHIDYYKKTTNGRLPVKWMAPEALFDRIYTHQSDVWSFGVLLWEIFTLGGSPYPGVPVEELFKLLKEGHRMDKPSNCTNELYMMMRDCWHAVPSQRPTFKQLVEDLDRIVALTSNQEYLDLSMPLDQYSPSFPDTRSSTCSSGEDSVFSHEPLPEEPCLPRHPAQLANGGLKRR

solubility kinetic [2]: 51 µM
Papp B→A [3]: 22.8 ×10⁻⁶ cm/s
Papp A→B [4]: 17 ×10⁻⁶ cm/s
IC50 [5]: > 1000 nM
CLH [6]: 36 mL/min/g
efflux ratio [7]: 1.3
IC50 [8]: > 1000 nM
IC50 [9]: 7.5 nM
IC50 [10]: > 1000 nM
AUC(0-t) at 8 h [12]: 1750 ng·h/mL
solubility kinetic [13]: 51 µM
IC50 [14]: > 1000 nM
solubility kinetic [15]: 51 µM
IC50 [16]: > 1000 nM
CLH [17]: 16 mL/min/g
Structure (SMILES): Cn1cc(-c2cnc(Nc3cccc(Cn4nc(-c5cnn(C)c5)ccc4=O)c3)nc2)cn1
IC50 [1]: 31.2 nM
inhibition in vivo at 5 mg/kg [11]: 42.5%
